US20250281548A1, “ANTIMICROBIAL COMPOSITIONS COMPRISING EXTRACELLULAR VESICLES AND METHODS THEREOF” (Washington State University, priority 2024, published 2025)

Columns and labels:
[1] = system: planktonic Candida auris cells; test: Growth of planktonic C. auris cells (OD600); type: cell-based; conditions: one dose, PAO1 D-EVs 0.25 μg/μl, E. coli D-EVs 0.15 μg/μl, YPD broth
Experimental: (§1) FIGS. 16A-16H summarize the EV bacterial protocol adapted for a fungal pathogen, C. auris. […] Fungal cell growth was monitored by measuring the OD600 of the cell culture. […] FIG. 16D illustrates the overall cellular levels of ROS radicals (including ·O2^− and ·OH) of C. auris in YPD broth culture in response to bacterial D-EV treatments. After 24 hr. of growth, C. auris cell culture (OD600=0.5) was mixed with a Cellular ROS Assay Kit (ab186027) and further incubated for 1 hr. Then, one dose of D-EVs extracted from either PAO1 (0.25 μg/μl) or E. coli (0.15 μg/μl) was added, followed by immediate monitoring of changes in fluorescence intensity (n=4). […] H2O2 (20%) was used as a positive control to stimulate C. auris to produce ·OH species.
Candida auris (B11220, ATCC) frozen at −80° C. was activated in yeast peptone dextrose (YPD) broth overnight at 37° C. Cells were be maintained at 4° C. on YPD-agar plates. The in vitro C. auris biofilms were be prepared by first activating the cultures at 4° C. in YPD broth at 37° C., then transferring a volume of 2.5 μL (OD600˜0.5) onto sterile 13-mm polycarbonate membrane (WHA10417401, Sigma-Aldrich) on YPD-agar plates (FIG. 17). The plates were then incubated at 37° C. for 0 h, 24 h, 48 h, and 72 h, respectively, for the following experiments.

[2] = system: P. aeruginosa PAO1 biofilms; test: PAO1 colony biofilm growth, viable cell count (Log10 CFU/cm^2); type: cell-based; conditions: for Effect of ferric ions alone on 96-h PAO1 biofilm growth (in words): 10, 25, 50 μM Fe^3+
Experimental: P. aeruginosa (PAO1) from a −80° C. freezer was streaked on tryptic soy agar (TSA, BD Difco™ Dehydrated Culture Media, DF0369-17-6) and incubated overnight at 37° C. The P. aeruginosa was maintained on TSA plates at 4° C. and an inoculum was prepared by transferring a touch from this plate into 10 mL of tryptic soy broth (BD Bacto™) and incubated overnight. Then, a volume of 100 μL (OD600=0.1) was used to seed 47-mm sterilized filter membranes (Membrane Solutions MCE Gridded Membrane Filter, Mixed Cellulose Esters Membrane Filter, Pore Size: 0.45 μm) on TSA petri dishes. The plates were incubated at either 37° C. or 33° C. At desired time points (0, 1, 2, 4, 8, 12, 16, 24, 32, 48, 72, 85, 96, and 120 h), the biofilm was suspended in 0.9% NaCl to prepare serial dilutions for colony forming unit (CFU) counting. The viable cell concentration (CFU/cm^2) was calculated according to the literature. All experiments were done under aseptic conditions. TSA and TSB were autoclaved at 121° C. and […] for 50 min/L.
To quantify the effects of G-EVs and D-EVs on the growth behavior of P. aeruginosa PAO1 biofilms, biofilms grown for 2 hr. (lag phase), 8 hr. (exponential phase), and 24 hr. (stationary phase) were tested. Briefly, an inoculum was prepared by transferring a touch from the P. aeruginosa PAO1-TSA plates into 10 ml of TSB and incubating the plates at 37° C. overnight. A volume of 2.5 μL (OD600˜0.5) was used to seed sterile 13-mm polycarbonate membranes (WHA10417401, Sigma-Aldrich) on TSA plates and incubated at 37° C. Biofilms grown for 2 hr. were treated with one dose of G-EVs (0.028 μg/μL) or D-EVs (0.33 μg/μL) and incubated at 37° C. for 24 hours. Biofilms grown for 8 hr. were treated with one dose of G-EVs (0.037 μg/μL) or D-EVs (0.33 μg/μL) and incubated at 37° C. for 24 hours. Three doses of D-EVs (0.33 μg/μL) were applied (one dose every 24 h) to biofilms grown for 24 h, and the plates were incubated at 37° C. Then viable cells were counted and reported as CFU/cm^2.
To test if the suppression of PAO1 biofilm growth is caused by D-EV-induced excessive iron uptake by D-EV recipient cells leading to the activation of bacterial cell death, the research team examined whether D-EV-induced excessive iron uptake could improve the poor efficacy of the D EVs against 96-h biofilms (FIG. 9D). […]
The viability of treated P. aeruginosa PAO1 biofilms was investigated and compared to control. P. aeruginosa PAO1 biofilms at 2 hr., 8 hr., 24 hr., 48 hr., and 96 hr. were individually treated with a one-dose of P. aeruginosa PAO1 D-EVs±iron (50 μM) and the biofilm inhibition was quantified in the term of log10 CFU·cm^−2.

[3] = system: C. auris; test: Cellular ROS assay in C. auris culture; type: cell-based, Candida auris; conditions: PAO1 D-EVs 0.25 μg/μl, E. coli D-EVs 0.15 μg/μl; ertapenem, tetracycline 2 mg/mL
Experimental: as §1

OO [H2O2 (30%), H2O2]
C. auris growth (in words) [1]: effectively inhibited fungal growth

[Fe+3] [ferric ions]
Growth of PAO1 biofilms at 2-96 hr. after one dose (in words) ([2]; 2, 8, 24, 48, 96 hr. biofilms, one dose D-EVs ± iron 50 μM, 24 hr. exposure): increased | Effect of ferric ions alone on 96-h PAO1 biofilm growth (in words) ([2]; 96-h biofilms): marginally promoted biofilm growth | Effect of ferric ions alone on 96-h PAO1 biofilm growth (in words) ([2]; 96-h biofilms, listed as Ferric ions): very minimal effect | Growth of 96-h PAO1 biofilm with ferric ions alone ([2]; 96-h biofilms, ferric ions alone (10-50 μM), PBS control ~8.2): 8.7 log10

C[C@@H](O)[C@H]1C(=O)N2C(C(=O)O)=C(S[C@@H]3CN[C@H](C(=O)Nc4cccc(C(=O)O)c4)C3)[C@H](C)[C@H]12 [ertapenem]
ROS production in C. auris (in words) [3]: No change in ROS production
